How the values were obtained:
Smn protein = Smn protein assay in cultured cells (SMN HTRF); assay type: cell-based, human; conditions: 48 hours; for maximum fold (Fold) increase of Smn protein: SMA patient fibroblast cells, 7-point concentration data, fold increase relative to vehicle control (SMN HTRF); for EC1.5x (concentration giving 1.5-fold Smn protein increase): SMA Type 1 patient fibroblast cells (GM03813), 7-point concentration curve, SMN HTRF, concentration producing 1.5 times Smn protein vs DMSO vehicle control, read-out: EC1.5x for Smn protein expression
How it was run: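 Lysates in RIPA with protease inhibitors are incubated overnight at room temperature with HTRF anti-SMN antibodies. EC1.5x is derived from fold increase in ΔF over vehicle.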

[1] = system: SMN2 minigene (full length SMN2 minigene mRNA containing SMN2 exon 7); test: SMN2 minigene mRNA splicing RT-qPCR assay in cultured cells; assay type: cell-based, human; conditions: Homo sapiens, HEK293-H; HEK293H cells stably transfected with SMN2-A minigene; 24 hours; 7-point concentration curve; 1.5-fold relative to vehicle-treated cells; read-out: EC1.5x for production of full length SMN2 mRNA
How it was run: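 HEK293H cells stably carrying the SMN2-A minigene treated 24 h at 37° C with compound (DMSO, 200× stock), then lysed. Multiplex RT-qPCR (SMN primers 0.4 μM final; 40 cycles) measures full-length exon 7-containing minigene mRNA, normalized to GAPDH and to vehicle; EC1.5x derived and binned by stars.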

| SMILES | maximum fold (Fold) increase of Smn protein (Smn protein) | EC (1.5-fold) [1] [µM] | melting point | EC1.5x (concentration giving 1.5-fold Smn protein increase) (Smn protein) [nM] |
| --- | --- | --- | --- | --- |
| COc1cc(OC)cc(-c2cc3ccc(N4CCCNCC4)cc3oc2=O)c1 [Compound 387, 7-(1,4-diazepan-1-yl)-3-(3,5-dimethoxyphenyl)-2H-chromen-2-one] | * (maximum fold increase of ≤1.2) | 3 to 30 | 238 to 240 °C |  |
| CCc1cn2cc(-c3cc4ccc(N5CCCNCC5)cc4oc3=O)nc2s1 [Compound 430, 7-(1,4-diazepan-1-yl)-3-(2-ethylimidazo[2,1-b][1,3]thiazol-6-yl)-2H-chromen-2-one] | * (maximum fold increase of ≤1.2) | 1 to 3 | 185 to 189 °C |  |
| C[C@H]1CN(c2ccc3cc(-c4nc(C(F)(F)F)cs4)c(=O)oc3c2)CCN1 [Compound 239, 7-[(3S)-3-methylpiperazin-1-yl]-3-[4-(trifluoromethyl)-1,3-thiazol-2-yl]-2H-chromen-2-one] | * (maximum fold increase of ≤1.2) | 1 to 3 | 234 to 238 °C |  |
| Cc1cn2cc(-c3cc4ccc(C5CCN(C6CCC6)CC5)cc4oc3=O)nc2c(C)n1 [Compound 821, 7-(1-cyclobutylpiperidin-4-yl)-3-(6,8-dimethylimidazo[1,2-a]pyrazin-2-yl)-2H-chromen-2-one] | ***** (fold increase >1.65) | < 0.1 | 200 to 205 °C | < 300 |
| Cc1cccn2cc(-c3cc4ccc(N5CCN[C@H](C)C5)cc4oc3=O)nc12 [Compound 247, 3-(8-methylimidazo[1,2-a]pyridin-2-yl)-7-[(3R)-3-methylpiperazin-1-yl]-2H-chromen-2-one] | ** (fold increase between >1.2 and ≤1.35) | 0.1 to 0.3 | 299 °C (dec.) |  |
| Cc1nc(Cl)cn2cc(-c3cc4ccc(N5CCN(C)[C@@H](C)C5)cc4oc3=O)nc12 [Compound 727, 3-(6-chloro-8-methylimidazo[1,2-a]pyrazin-2-yl)-7-[(3S)-3,4-dimethylpiperazin-1-yl]-2H-chromen-2-one] | *** (fold increase between >1.35 and ≤1.5) | 0.1 to 0.3 | 251 to 253 °C | 1000 to 3000 |
| CCN1CCN(c2ccc3cc(-c4cn5cccc(C)c5n4)c(=O)oc3c2)CC1 [Compound 100, 7-(4-ethylpiperazin-1-yl)-3-(8-methylimidazo[1,2-a]pyridin-2-yl)-2H-chromen-2-one] | ** (fold increase between >1.2 and ≤1.35) | 0.3 to 1 | 211 to 213 °C |  |
| Cc1cn2cc(-c3cc4ccc(OCCN5CCOCC5)cc4oc3=O)nc2c(C)n1 [Compound 956, 3-(6,8-dimethylimidazo[1,2-a]pyrazin-2-yl)-7-[2-(morpholin-4-yl)ethoxy]-2H-chromen-2-one] | ***** (fold increase >1.65) | 0.1 to 0.3 | 175 to 177 °C | 1000 to 3000 |
| C[C@@H]1CN(c2ccc3cc(-c4cn5cc(C6CC6)cc(F)c5n4)c(=O)oc3c2)CCN1 [Compound 503, 3-(6-cyclopropyl-8-fluoroimidazo[1,2-a]pyridin-2-yl)-7-[(3R)-3-methylpiperazin-1-yl]-2H-chromen-2-one] | * (maximum fold increase of ≤1.2) | 0.3 to 1 | 254 to 264 °C |  |
| O=c1oc2cc(N3CCN4CCC[C@H]4C3)ccc2cc1-c1cn2cccc(F)c2n1 [Compound 528, 3-(8-fluoroimidazo[1,2-a]pyridin-2-yl)-7-[(8aS)-hexahydropyrrolo[1,2-a]pyrazin-2(1H)-yl]-2H-chromen-2-one] | ** (fold increase between >1.2 and ≤1.35) | 1 to 3 | 235 to 238 °C |  |
| Cc1cnc2nc(-c3cc4ccc(N5CCN(C)CC5)cc4oc3=O)cn2c1 [Compound 242, 3-(6-methylimidazo[1,2-a]pyrimidin-2-yl)-7-(4-methylpiperazin-1-yl)-2H-chromen-2-one] | *** (fold increase between >1.35 and ≤1.5) | 0.3 to 1 | > 310 °C |  |
| Cc1nccn2cc(-c3cc4ccc(N5C[C@@H](C)N[C@@H](C)C5)cc4oc3=O)cc12 [Compound 554, 7-[(3R,5S)-3,5-dimethylpiperazin-1-yl]-3-(1-methylpyrrolo[1,2-a]pyrazin-7-yl)-2H-chromen-2-one] | ***** (fold increase >1.65) | < 0.1 | 200 to 203 °C | < 300 |
| Cc1cn2cc(-c3cc4ccc(N5CCCNCC5)cc4oc3=O)cc2c(C)n1 [Compound 682, 7-(1,4-diazepan-1-yl)-3-(1,3-dimethylpyrrolo[1,2-a]pyrazin-7-yl)-2H-chromen-2-one] | *** (fold increase between >1.35 and ≤1.5) | < 0.1 | 187 to 190 °C | 1000 to 3000 |
| Cc1cn2cc(-c3cc4ccc(N5CCC(N)CC5)cc4oc3=O)nc2c(C)n1 [Compound 919, 7-(4-aminopiperidin-1-yl)-3-(6,8-dimethylimidazo[1,2-a]pyrazin-2-yl)-2H-chromen-2-one] | **** (fold increase between >1.5 and ≤1.65) | < 0.1 | 262 to 269 °C | < 300 |
| CCc1cn2cc(-c3cc4ccc(N5CCNCC5)cc4oc3=O)nc2s1 [Compound 428, 3-(2-ethylimidazo[2,1-b][1,3]thiazol-6-yl)-7-(piperazin-1-yl)-2H-chromen-2-one] | * (maximum fold increase of ≤1.2) | 1 to 3 | 231 to 236 °C |  |
| COc1ccc(-c2cc3ccc(N4CCNCC4)cc3oc2=O)cc1 [Compound 447, 3-(4-methoxyphenyl)-7-(piperazin-1-yl)-2H-chromen-2-one] | * (maximum fold increase of ≤1.2) | 1 to 3 | 211 to 213 °C |  |
| CN1CCCN(c2ccc3cc(-c4cn5cccc(C(F)(F)F)c5n4)c(=O)oc3c2)CC1 [Compound 293, 7-(4-methyl-1,4-diazepan-1-yl)-3-[8-(trifluoromethyl)imidazo[1,2-a]pyridin-2-yl]-2H-chromen-2-one] | * (maximum fold increase of ≤1.2) | 0.3 to 1 | 196 to 199 °C |  |
| Cc1cn2cc(-c3cc4ccc(OCCN5CCCC5)cc4oc3=O)nc2c(C)n1 [Cpd 918, 3-(6,8-dimethylimidazo[1,2-a]pyrazin-2-yl)-7-[2-(pyrrolidin-1-yl)ethoxy]-2H-chromen-2-one] | **** (fold increase between >1.5 and ≤1.65) | < 0.1 | 201 to 203 °C | 300 to 1000 |
| O=c1oc2cc(O[C@H]3CCNC3)ccc2cc1-c1nc2ccccc2s1 [Compound 54, 3-(1,3-benzothiazol-2-yl)-7-[(3S)-pyrrolidin-3-yloxy]-2H-chromen-2-one] | * (maximum fold increase of ≤1.2) | 1 to 3 | 205 to 211 °C |  |

Source: patent USRE47689E1, “Compounds for treating spinal muscular atrophy” (PTC Therapeutics, Inc., priority 2011, dated 2019)
